In patent US11597708B2, “Inhibitors of heat shock factors and uses thereof” (HSF Pharmaceuticals SA, priority 2016, dated 2023):

How the values were obtained:
[1] = system: hsp70b promoter-driven fluc gene; test: Corroborating experiment in a cell line containing an hsp70b promoter-driven fluc gene; assay type: cell-based; conditions: data not shown
Protocol: The compounds of the afore-mentioned biased sublibrary were screened in cell line Z74 at 12.5 and 25 μM concentrations. Typically, Z74 cultures in 96-well plates were exposed to compound or vehicle for 2 h, heat-treated at 43.0° C. for 30 min, and incubated further for 6 h at 37° C. to allow for accumulation of the luciferases. RLuc and FLuc activities were determined, typically using the Dual-Glo® Luciferase Assay System (Promega Corp., Madison, Wis.), and reading luciferase light counts in a Wallac Microbeta Trilux-1450 Luminometer (PerkinElmer, Waltham, Mass.). IHSF 001 was one of two library compounds that inhibited RLuc expression but not FLuc expression in heat-treated Z74 cells (Table 1; FIG. 2A). Therefore, IHSF 001 is an inhibitor of HSF1 function that specifically acts through the HSF1 DNA-binding domain. […] A corroborating experiment utilized a cell line containing an hsp70b promoter-driven fluc gene. […] IHSF 001 is (E)-ethyl 4-oxo-4-(thiazol-2-ylamino)but-2-enoate. The compound can be obtained from commercial sources (e.g., AKE-PB-90340538, Akos).

HeLa cells [2] = test: Flow cytometric analysis of DNA (sub-G0/G1 fraction); assay type: cell-based, human; conditions: 12.5 or 25 μM for up to 24 h
Protocol: (§1) FIG. 6. (A) HeLa cell cultures were mock-exposed (−) or exposed to the indicated concentrations of compound 115 for 24 (left panel) or 96 (right panel) hours. Cell viability of total cultures, floating cells and attached cells was assayed using an Alamar Blue assay. (B) HeLa cell cultures were mock-exposed (−) or exposed to the indicated concentrations of compound 115 for 15-96 hours. Trypan Blue dye exclusion was employed to determine numbers of live cells (left panel) and relative levels of necrotic cells (right panel). (C) HeLa cell cultures were mock-exposed (−) or exposed to the indicated concentrations of compound 115 for 6 and 24 h. Shown are relative levels of early apoptotic cells (annexin-positive, 7 aminoactinomycin D-negative). (D) Flow cytometric analysis of DNA of HeLa cell cultures mock-exposed (−) or exposed to the indicated concentrations of compound 115 for 6, 15 and 24 hours. Relative levels of apoptotic cells are indicated.
(§2) Further studies were aimed at finding out whether IHSF-exposed cancer cells were only growth-arrested or were actually killed and, if they were killed, by what mechanism. […] The viability signal (in whole cultures and, more dramatically, when only attached cells were analyzed) decreased as a function of IHSF concentration. […] Stained (necrotic) and unstained (live) cells were counted (FIG. 6B). […]

HeLa cells [3] = test: Annexin V/7 aminoactinomycin D double staining assay; assay type: cell-based, human; conditions: 25 μM for up to 24 hours
Protocol: as §1, §2

[4] = Dissolution in aqueous Kleptose HPB stock solution; assay type: physicochemical; conditions: 85 mg in 8.5 ml of 357 mg/ml Kleptose HPB stock solution, overnight, slow agitation, room temperature
Protocol: 1. Prepare 15 ml of a 357 mg/ml stock solution of Kleptose HPB (Roquette Pharma) in water (of which the amount not used under 2 is reserved for vehicle controls).
2. Dissolve 85 mg of compound 0115 in 8.5 ml of Kleptose stock solution by incubating the solution overnight with slow agitation (at room temperature). Over 90% of the drug substance will be dissolved after this incubation.

human cancer cell lines = test: Viability of human cancer cell lines (overall statements); assay type: cell-based; conditions: 96-hour exposure; sensitivity varied greatly; no effect of p53 status
Protocol: Cultures of HeLa cells were exposed for 96 hours to different concentrations of IHSF 001, 058 and 115, and viability was assessed using an Alamar Blue assay. It is noted that this standard assay examines attached cells only. This subject will be discussed in more detail below. […] The relative cytotoxicity of the compounds appears to parallel their respective activities as inhibitors of HSF1 function (inhibition of RLuc expression in Z74 cells). We next examined the viability of different human cancer cell lines subsequent to a 96-hour exposure to compound 115 (Table 3). HSF1 was reported as being required for optimal p21 expression and for p53-mediated cell cycle arrest in response to genotoxins. Logan, I. R. et al. (2009) Nucleic Acids Res. 37: 2962-2971. […] Cell lines of different p53 status were included in the experiments in order to find out whether sensitivity to IHSF 115 was related to p53 status. […] No effect of p53 status could be discovered. It is noted that a number of additional HSF inhibitors of the present disclosure were tested and found to effectively reduce the viability of human cancer cells.

| Compound | FLuc expression in hsp70b promoter-driven fluc line [1] | sub-G0/G1 fractions (% of cells included) (HeLa cells [2]) | live cells annexin V-stained (HeLa cells [3]) | drug substance dissolved [4] | viability of human cancer cell lines (human cancer cell lines) |
| --- | --- | --- | --- | --- | --- |
| CCOC(=O)/C=C/C(=O)Nc1nccs1 [IHSF 001, (E)-ethyl 4-oxo-4-(thiazol-2-ylamino)but-2-enoate] | inhibit FLuc expression |  |  |  |  |
| CN(C(=O)/C=C/C1=NCCCO1)c1ncc(-c2cccnc2)s1 [IHSF 115, (E)-3-(5,6-Dihydro-4H-[1,3]oxazin-2-yl)-N-methyl-N-(5-pyridin-3-yl-thiazol-2-yl)-acrylamide] |  | ≤ 6% | no more than 15% | Over 90% | reduced viability in all cell lines tested |
